Assay results from patent US12398132B2, “Derivatives of 4-(imidazo[1,2-a]pyridin-3-yl)-n-(pyridinyl)pyrimidin-2-amine as therapeutic agents” (AUCENTRA THERAPEUTICS PTY LTD, priority 2019, dated 2025).
Residue numbers refer to the chain shown, from its start. Read-outs that look alike come from different tables or passages of the source.

Assays:
[1] = target: CDK1B (Homo sapiens, UniProt P06493)
[2] = target: T1, FLT3(WT) (Homo sapiens, UniProt P36888); experiment: ADP Glo kinase assay, FLT3(WT); type: biochemical; details: for remaining activity at 1 µM: compound at 1 μM, read-out: residual enzymatic activity (%) at 1 μM; for Ki: apparent Ki calculated from Km (ATP) and IC50, read-out: FLT3 inhibition Ki
T1 sequence (P36888 27-993): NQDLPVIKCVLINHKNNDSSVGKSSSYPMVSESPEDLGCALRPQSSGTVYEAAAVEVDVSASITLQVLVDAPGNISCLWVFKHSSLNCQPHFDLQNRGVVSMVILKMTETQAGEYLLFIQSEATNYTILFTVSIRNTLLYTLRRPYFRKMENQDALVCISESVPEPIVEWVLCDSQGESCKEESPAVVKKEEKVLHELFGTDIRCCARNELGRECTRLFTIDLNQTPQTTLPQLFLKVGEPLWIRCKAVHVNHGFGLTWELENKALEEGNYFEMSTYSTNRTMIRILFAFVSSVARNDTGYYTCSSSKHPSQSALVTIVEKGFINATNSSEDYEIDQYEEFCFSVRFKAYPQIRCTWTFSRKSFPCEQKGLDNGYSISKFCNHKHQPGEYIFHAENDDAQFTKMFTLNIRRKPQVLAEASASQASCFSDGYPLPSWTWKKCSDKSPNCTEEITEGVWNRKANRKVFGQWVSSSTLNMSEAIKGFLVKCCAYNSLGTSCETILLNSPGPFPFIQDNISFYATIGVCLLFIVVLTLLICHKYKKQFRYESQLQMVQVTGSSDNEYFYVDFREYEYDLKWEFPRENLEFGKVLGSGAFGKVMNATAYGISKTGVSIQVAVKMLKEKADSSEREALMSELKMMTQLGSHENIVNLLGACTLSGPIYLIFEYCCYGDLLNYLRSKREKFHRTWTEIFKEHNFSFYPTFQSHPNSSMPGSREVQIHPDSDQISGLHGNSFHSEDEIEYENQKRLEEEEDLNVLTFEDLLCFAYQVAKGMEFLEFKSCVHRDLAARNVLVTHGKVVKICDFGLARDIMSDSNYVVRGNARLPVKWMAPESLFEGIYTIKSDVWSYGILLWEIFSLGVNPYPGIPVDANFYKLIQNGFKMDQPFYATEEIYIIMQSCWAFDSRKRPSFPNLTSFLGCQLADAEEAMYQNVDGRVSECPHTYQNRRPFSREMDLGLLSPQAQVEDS
Experimental: (§1) Inhibition of FLT3(WT), FLT3(ITD) and FLT3(D835Y) and CDKs were determined using ADP Glo Kinase assays (Promega Corporation, Madison, WI, USA). […] The kinase reactions are run for an optimised time period (FLT3-WT: 120 min, FLT3-ITD: 80 min, FLT3-D835Y: 100 min) at room temperature and then the reaction was stopped by adding 5 μL of ADP Glo reagent. […] Positive and negative controls were performed in 0.5% DMSO in the presence and absence of each FLT3 kinase, respectively. […] Half-maximal inhibition (IC50) values were calculated using a 4-parameter logistic non-linear regression model with Graphpad prism (Version 6.0). Apparent inhibition constants (Ki) values were calculated from Km (ATP) and IC50 values for the respective kinases.

[3] = target: CDK9/CyclinT1 (Homo sapiens, UniProt P50750); experiment: ADP Glo kinase assay, CDK9/CyclinT1; type: biochemical; details: CDK9T1; for remaining activity at 10 µM: compound at 10 μM, read-out: residual enzymatic activity (%) at 10 μM
CDK9/CyclinT1, sequence (P50750 whole entry, species assumed): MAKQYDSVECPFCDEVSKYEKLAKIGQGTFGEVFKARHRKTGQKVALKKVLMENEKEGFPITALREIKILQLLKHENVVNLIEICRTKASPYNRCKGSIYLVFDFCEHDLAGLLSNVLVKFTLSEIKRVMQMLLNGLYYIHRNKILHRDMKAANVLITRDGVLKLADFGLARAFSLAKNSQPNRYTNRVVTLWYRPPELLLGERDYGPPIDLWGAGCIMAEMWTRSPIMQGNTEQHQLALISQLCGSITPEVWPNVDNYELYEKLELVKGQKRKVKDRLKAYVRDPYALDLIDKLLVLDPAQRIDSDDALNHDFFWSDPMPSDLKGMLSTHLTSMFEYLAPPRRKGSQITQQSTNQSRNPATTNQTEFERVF
CDK9/CyclinT1, sequence (O60563 whole entry partner, species assumed): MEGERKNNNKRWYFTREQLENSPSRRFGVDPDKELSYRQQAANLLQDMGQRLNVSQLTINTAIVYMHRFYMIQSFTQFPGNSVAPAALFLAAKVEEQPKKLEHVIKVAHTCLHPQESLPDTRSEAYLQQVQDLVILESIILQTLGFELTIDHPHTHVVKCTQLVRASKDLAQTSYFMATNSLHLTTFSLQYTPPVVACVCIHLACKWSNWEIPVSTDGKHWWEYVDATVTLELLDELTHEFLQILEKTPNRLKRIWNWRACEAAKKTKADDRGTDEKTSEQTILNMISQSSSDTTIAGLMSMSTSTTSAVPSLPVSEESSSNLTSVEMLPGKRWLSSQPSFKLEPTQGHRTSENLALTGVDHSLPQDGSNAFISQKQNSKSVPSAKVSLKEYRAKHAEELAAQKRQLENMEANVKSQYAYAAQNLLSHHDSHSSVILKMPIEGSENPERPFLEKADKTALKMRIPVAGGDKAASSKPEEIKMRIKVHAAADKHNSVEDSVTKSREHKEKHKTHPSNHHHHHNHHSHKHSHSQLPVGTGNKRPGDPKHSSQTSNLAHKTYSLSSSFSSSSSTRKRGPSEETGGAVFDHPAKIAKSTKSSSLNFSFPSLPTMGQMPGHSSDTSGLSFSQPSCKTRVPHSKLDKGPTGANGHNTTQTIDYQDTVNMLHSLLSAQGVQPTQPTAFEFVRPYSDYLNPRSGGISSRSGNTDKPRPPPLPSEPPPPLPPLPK

[4] = target: CDK4/D1 (Homo sapiens, UniProt P11802); experiment: ADP Glo kinase assay, CDK4/D1; type: biochemical; details: CDK4D1; for remaining activity at 10 µM: compound at 10 μM, read-out: residual enzymatic activity (%) at 10 μM; for remaining activity at 1 µM: compound at 1 μM (values marked *), read-out: residual enzymatic activity (%) at 1 μM*
CDK4/D1, sequence (P11802 whole entry, species assumed): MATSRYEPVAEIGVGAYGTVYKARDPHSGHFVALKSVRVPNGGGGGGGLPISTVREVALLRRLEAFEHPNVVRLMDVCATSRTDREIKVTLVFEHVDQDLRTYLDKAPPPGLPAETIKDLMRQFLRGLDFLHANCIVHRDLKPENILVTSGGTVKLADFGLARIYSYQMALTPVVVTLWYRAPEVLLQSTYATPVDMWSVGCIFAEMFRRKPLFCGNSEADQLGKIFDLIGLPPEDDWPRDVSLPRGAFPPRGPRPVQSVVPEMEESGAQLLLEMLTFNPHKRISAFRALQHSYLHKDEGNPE
CDK4/D1, sequence (P24385 whole entry partner, species assumed): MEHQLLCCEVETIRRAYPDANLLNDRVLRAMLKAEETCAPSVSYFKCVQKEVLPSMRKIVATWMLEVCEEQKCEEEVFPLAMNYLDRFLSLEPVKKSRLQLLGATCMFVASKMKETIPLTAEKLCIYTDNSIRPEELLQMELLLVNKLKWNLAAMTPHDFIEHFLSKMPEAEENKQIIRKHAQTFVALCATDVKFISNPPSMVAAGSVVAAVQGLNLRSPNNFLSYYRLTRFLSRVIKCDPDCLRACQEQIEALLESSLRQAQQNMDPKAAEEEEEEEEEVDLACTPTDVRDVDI
Experimental: Inhibition of FLT3(WT), FLT3(ITD) and FLT3(D835Y) and CDKs were determined using ADP Glo Kinase assays (Promega Corporation, Madison, WI, USA). […] Similarly, kinase reaction for CDK4/D1 and CDK6/D3 was performed with reaction buffer (40 nM Tris base pH 7.5, 20 mM MgCl2, 0.4 mM DTT), 0.1 mg/ml BSA and RB-CTF substrate (retinoblastoma protein1 C-terminal fraction). For CDK9/CyclinT1, the kinase reaction was performed with the standard assay buffer and Kinase Dilution Buffer and RBER-IRStide substrate. Half-maximal inhibition (IC50) values were calculated using a 4-parameter logistic non-linear regression model with Graphpad prism (Version 6.0). Apparent inhibition constants (Ki) values were calculated from Km (ATP) and IC50 values for the respective kinases.

[5] = target: T2, FLT3(D835Y) (Homo sapiens, UniProt P36888, D835Y); experiment: ADP Glo kinase assay, FLT3(D835Y); type: biochemical; details: apparent Ki calculated from Km (ATP) and IC50, read-out: FLT3 inhibition Ki
T2 sequence (P36888 27-993 D835Y): T1 sequence (P36888 27-993) with D809Y
Experimental: as §1

[6] = target: CDK7HMAT1 (Homo sapiens, UniProt P50613); details: 10 µM;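 note: kinase activity measured with an ADP-Glo luminescent kinase assay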
CDK7HMAT1, sequence (P50613 whole entry): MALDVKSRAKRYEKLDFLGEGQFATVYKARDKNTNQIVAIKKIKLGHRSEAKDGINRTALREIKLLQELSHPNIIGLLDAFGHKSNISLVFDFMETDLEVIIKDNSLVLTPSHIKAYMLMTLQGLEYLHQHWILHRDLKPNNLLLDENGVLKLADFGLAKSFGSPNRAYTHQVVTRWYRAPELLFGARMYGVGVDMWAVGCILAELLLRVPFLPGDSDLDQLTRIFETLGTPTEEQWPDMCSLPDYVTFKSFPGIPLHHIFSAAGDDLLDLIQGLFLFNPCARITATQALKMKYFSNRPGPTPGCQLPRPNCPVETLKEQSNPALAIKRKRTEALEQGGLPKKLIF
CDK7HMAT1, sequence (P51946 whole entry partner): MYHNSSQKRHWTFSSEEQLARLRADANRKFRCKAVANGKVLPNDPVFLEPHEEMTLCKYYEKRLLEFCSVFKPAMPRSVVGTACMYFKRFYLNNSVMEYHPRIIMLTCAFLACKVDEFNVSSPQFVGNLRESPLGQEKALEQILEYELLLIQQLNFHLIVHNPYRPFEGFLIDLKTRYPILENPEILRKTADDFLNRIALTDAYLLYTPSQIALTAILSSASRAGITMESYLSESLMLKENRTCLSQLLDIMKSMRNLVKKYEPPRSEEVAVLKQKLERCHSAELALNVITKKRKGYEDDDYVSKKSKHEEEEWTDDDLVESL
CDK7HMAT1, sequence (P51948 whole entry partner): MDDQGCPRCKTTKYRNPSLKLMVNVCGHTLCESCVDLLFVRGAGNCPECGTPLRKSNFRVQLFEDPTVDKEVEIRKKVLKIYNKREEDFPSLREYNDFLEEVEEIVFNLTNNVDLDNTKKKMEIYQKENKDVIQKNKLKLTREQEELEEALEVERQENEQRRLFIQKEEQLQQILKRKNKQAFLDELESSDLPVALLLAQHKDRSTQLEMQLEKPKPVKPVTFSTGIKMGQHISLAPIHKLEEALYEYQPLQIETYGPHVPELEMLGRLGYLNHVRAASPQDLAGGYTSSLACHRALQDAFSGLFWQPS
Experimental: as §1

[7] = target: T3, FLT3(ITD) (Homo sapiens, UniProt P36888); experiment: ADP Glo kinase assay, FLT3(ITD); type: biochemical; details: apparent Ki calculated from Km (ATP) and IC50, read-out: FLT3 inhibition Ki
T3 sequence (P36888 1-993): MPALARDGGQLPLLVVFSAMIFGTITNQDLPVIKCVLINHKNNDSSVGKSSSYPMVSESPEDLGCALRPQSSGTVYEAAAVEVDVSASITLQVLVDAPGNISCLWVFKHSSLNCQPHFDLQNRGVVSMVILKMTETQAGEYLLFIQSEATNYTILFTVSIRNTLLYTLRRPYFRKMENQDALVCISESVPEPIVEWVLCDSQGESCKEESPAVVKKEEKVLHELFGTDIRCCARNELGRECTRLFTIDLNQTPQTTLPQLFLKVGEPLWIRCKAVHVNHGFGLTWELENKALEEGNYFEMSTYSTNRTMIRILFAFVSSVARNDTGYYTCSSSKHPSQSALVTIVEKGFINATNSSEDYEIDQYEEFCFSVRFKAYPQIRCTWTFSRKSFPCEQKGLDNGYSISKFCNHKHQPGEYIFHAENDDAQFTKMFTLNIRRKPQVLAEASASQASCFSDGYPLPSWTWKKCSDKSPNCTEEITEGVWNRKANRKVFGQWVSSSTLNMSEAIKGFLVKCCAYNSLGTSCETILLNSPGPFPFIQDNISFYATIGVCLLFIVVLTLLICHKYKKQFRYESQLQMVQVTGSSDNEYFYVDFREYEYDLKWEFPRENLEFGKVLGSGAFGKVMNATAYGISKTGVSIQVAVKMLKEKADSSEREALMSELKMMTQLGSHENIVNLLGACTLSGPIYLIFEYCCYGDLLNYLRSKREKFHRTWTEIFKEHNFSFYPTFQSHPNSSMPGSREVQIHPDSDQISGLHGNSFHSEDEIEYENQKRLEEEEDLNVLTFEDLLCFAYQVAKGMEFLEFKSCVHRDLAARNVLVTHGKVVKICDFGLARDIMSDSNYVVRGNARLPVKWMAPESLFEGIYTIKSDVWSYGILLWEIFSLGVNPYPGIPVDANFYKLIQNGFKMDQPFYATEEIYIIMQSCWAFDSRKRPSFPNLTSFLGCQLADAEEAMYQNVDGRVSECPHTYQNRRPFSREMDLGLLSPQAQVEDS

[8] = tested on: MV-4-11; experiment: Proliferation assay (resazurin/MTT), MV-4-11; type: cell-based; details: Homo sapiens, MV4-11, read-out: 72 h Growth inhibition GI50, MV-4-11 cells
[9] = tested on: U937; experiment: Proliferation assay (resazurin/MTT), U937; type: cell-based; details: Homo sapiens, U-937, read-out: 72 h Growth inhibition GI50, U937 cells
[10] = target: CDK2E1 (Homo sapiens, UniProt P24941); details: 1 µM
[11] = target: CDK6/D3 (Homo sapiens, UniProt Q00534); experiment: ADP Glo kinase assay, CDK6/D3; type: biochemical; details: CDK6D3; for remaining activity at 10 µM: compound at 10 μM, read-out: residual enzymatic activity (%) at 10 μM; for remaining activity at 1 µM: compound at 1 μM (values marked *), read-out: residual enzymatic activity (%) at 1 μM*
CDK6/D3, sequence (Q00534 whole entry, species assumed): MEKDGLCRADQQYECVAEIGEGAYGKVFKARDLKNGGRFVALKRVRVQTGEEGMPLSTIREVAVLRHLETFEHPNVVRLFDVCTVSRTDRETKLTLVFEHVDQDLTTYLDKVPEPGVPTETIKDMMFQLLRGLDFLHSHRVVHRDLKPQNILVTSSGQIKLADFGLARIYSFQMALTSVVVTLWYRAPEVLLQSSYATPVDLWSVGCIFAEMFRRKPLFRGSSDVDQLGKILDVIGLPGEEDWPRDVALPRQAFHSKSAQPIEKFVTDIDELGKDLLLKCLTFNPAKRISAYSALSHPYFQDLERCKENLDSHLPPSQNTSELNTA
CDK6/D3, sequence (P30281 whole entry partner, species assumed): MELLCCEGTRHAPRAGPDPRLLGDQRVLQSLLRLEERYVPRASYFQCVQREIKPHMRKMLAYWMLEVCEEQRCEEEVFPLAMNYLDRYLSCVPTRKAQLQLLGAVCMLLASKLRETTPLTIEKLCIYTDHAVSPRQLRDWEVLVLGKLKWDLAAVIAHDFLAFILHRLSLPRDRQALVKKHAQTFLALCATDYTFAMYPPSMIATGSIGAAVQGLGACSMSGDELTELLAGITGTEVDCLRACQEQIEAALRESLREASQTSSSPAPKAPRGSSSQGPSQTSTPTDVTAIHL

CDK1B, sequence (P06493 whole entry): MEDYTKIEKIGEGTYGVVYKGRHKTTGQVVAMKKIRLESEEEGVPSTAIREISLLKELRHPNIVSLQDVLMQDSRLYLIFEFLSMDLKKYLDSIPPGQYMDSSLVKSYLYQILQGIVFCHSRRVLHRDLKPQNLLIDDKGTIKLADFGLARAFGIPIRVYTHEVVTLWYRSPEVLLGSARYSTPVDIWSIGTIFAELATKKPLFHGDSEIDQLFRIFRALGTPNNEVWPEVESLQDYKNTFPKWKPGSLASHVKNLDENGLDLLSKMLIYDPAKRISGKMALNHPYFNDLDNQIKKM
CDK1B, sequence (P14635 whole entry partner): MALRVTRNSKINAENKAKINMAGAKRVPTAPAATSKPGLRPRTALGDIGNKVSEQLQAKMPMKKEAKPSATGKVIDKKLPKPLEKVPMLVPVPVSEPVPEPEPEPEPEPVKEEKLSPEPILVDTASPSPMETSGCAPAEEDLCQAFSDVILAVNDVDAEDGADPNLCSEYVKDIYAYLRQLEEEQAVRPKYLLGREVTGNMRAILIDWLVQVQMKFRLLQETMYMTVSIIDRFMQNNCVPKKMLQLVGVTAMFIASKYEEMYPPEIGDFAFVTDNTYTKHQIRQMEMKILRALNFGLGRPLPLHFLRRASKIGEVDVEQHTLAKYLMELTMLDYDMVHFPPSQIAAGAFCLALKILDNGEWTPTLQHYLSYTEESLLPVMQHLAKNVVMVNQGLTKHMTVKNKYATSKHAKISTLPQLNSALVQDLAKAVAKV

Row | SMILES | activity ([1]; 10 µM) [%] | remaining activity at 1 µM [2] [%] | remaining activity at 10 µM [3] [%] | remaining activity at 10 µM [4] [%] | Ki [5] [nM] | activity [6] [%] | Ki [7] [nM] | GI50 [8] [nM] | GI50 [9] [nM] | activity [10] [%] | remaining activity at 10 µM [11] [%] | Ki [2] [nM] | activity ([1]; 1 µM) [%] | Ki ([3]; apparent Ki calculated from Km (ATP) and IC50, read-out: CDK inhibition Ki) [nM] | remaining activity at 1 µM [4] [%] | remaining activity at 1 µM [11] [%]
1 | c1ccn2c(-c3ccnc(Nc4ccc(N5CCCCC5)cn4)n3)cnc2c1 [Cmpd 5, 4-(Imidazo[1,2-a]pyridin-3-yl)-N-(5-(piperidin-1-yl)pyridin-2-yl)pyrimidin-2-amine] | 48 | 45 | 28 | 53 | 45 | 84 | 63 | 75 | 6200 | 81 | 23 | – | – | – | – | –
2 | CC(=O)N1CCN(c2ccc(Nc3nccc(-c4cnc5ccc(Br)cn45)n3)nc2)CC1 [Cmpd 10, 1-(4-(6-((4-(6-Bromoimidazo[1,2-a]pyridin-3-yl)pyrimidin-2-yl)amino)pyridin-3-yl)piperazin-1-yl)ethan-1-one] | 41 | – | 23 | 34 | 10 | 55 | 6 | 2 | 3130 | 58 | 36 | 83 | – | – | – | –
3 | CC(=O)N1CCN(c2ccc(Nc3nccc(-c4cnc5ccc(-c6cncnc6)cn45)n3)nc2)CC1 [Cmpd 16, 1-(4-(6-((4-(6-(Pyrimidin-5-yl)imidazo[1,2-a]pyridin-3-yl)pyrimidin-2-yl)amino)pyridin-3-yl)piperazin-1-yl)ethan-1-one] | 81 | 23 | – | 78 | 48 | 60 | 426 | 18 | 2920 | 90 | 99 | – | – | – | – | –
4 | Brc1ccc(Nc2nccc(-c3cnc4ccccn34)n2)nc1 [Cmpd 47, N-(5-Bromopyridin-2-yl)-4-(imidazo[1,2-a]pyridin-3-yl)pyrimidin-2-amine] | – | – | 62 | – | > 500 | – | 489 | 545 | 645 | 103 | – | > 500 | 79 | – | 72 | 85
5 | Clc1ccc(Nc2nccc(-c3cnc4ccccn34)n2)nc1 [Cmpd 52, N-(5-Chloropyridin-2-yl)-4-(imidazo[1,2-a]pyridin-3-yl)pyrimidin-2-amine] | – | – | – | – | 584 | – | 421 | 213 | 691 | 52 | – | > 500 | – | – | – | –

The next lines start with the values.

Row | activity ([1]; 10 µM) [%] | remaining activity at 1 µM [2] [%] | remaining activity at 10 µM [3] [%] | remaining activity at 10 µM [4] [%] | Ki [5] [nM] | activity [6] [%] | Ki [7] [nM] | GI50 [8] [nM] | GI50 [9] [nM] | activity [10] [%] | remaining activity at 10 µM [11] [%] | Ki [2] [nM] | activity ([1]; 1 µM) [%] | Ki ([3]; apparent Ki calculated from Km (ATP) and IC50, read-out: CDK inhibition Ki) [nM] | remaining activity at 1 µM [4] [%] | remaining activity at 1 µM [11] [%] | SMILES
6 | 94 | – | 28 | 46 | 9 | 76 | 30 | 15 | 797 | 64 | 32 | 117 | – | – | – | – | CC(=O)N1CCN(c2ccc(Nc3nccc(-c4cnc5ccc(Cl)cn45)n3)nc2)CC1 [Cmpd 9, 1-(4-(6-((4-(6-Chloroimidazo[1,2-a]pyridin-3-yl)pyrimidin-2-yl)amino)pyridin-3-yl)piperazin-1-yl)ethan-1-one]
7 | – | – | – | – | 13 | – | 15 | 23 | 1960 | 49 | – | 25 | 71 | 111 | 34 | 46 | CN1CCN(c2ccc(Nc3nccc(-c4cnc5ccc(Br)cn45)n3)nc2)CC1 [Cmpd 45, 4-(6-Bromoimidazo[1,2-a]pyridin-3-yl)-N-(5-(4-methylpiperazin-1-yl)pyridin-2-yl)pyrimidin-2-amine]
8 | – | – | – | – | > 500 | – | > 500 | 382 | 2500 | 99 | – | > 500 | – | – | – | – | Ic1ccc(Nc2nccc(-c3cnc4ccccn34)n2)nc1 [Cmpd 53, 4-(Imidazo[1,2-a]pyridin-3-yl)-N-(5-iodopyridin-2-yl)pyrimidin-2-amine]
